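Values below derive from 48-hour exposures of cells grown in 96-well plates, with endpoints linearly interpolated between the two concentrations bracketing the appropriate inhibition level. Here, GI50 denotes the concentration required for 50% inhibition of growth. TGI: total growth inhibition.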
Key:
Assay in all cases: NCI anticancer screen, dose series, 48 h
TK-10 renal = test system: TK-10 renal
OVCAR-4 ovarian = test system: OVCAR-4 ovarian
A549 NSCLC = test system: A549 NSCLC
K-562 leukemia = test system: K-562 leukemia
A498 renal = test system: A498 renal
RXF 393 renal = test system: RXF 393 renal
UO-31 renal = test system: UO-31 renal
LOX IMVI melanoma = test system: LOX IMVI melanoma
SK-MEL-2 melanoma = test system: SK-MEL-2 melanoma
MDA-MB-231 breast = test system: MDA-MB-231 breast

Structure (SMILES)	TGI (TK-10 renal)	TGI (OVCAR-4 ovarian)	TGI (A549 NSCLC)	TGI (K-562 leukemia)	TGI (A498 renal)	TGI (RXF 393 renal)	TGI (UO-31 renal)	TGI (LOX IMVI melanoma)	TGI (SK-MEL-2 melanoma)	GI50 (TK-10 renal)	GI50 (A549 NSCLC)	GI50 (K-562 leukemia)	GI50 (A498 renal)	GI50 (RXF 393 renal)	GI50 (UO-31 renal)	GI50 (MDA-MB-231 breast)	TGI (MDA-MB-231 breast)	GI50 (LOX IMVI melanoma)	GI50 (SK-MEL-2 melanoma)	GI50 (OVCAR-4 ovarian)
O=C(/C=C/c1cccc([N+](=O)[O-])c1)c1ccc([N+](=O)[O-])cc1	> 100 µM	> 100 µM	> 100 µM	> 100 µM	> 100 µM	> 100 µM	> 100 µM	> 100 µM	> 100 µM	–	–	–	–	–	–	–	–	–	–	–
CC1NC(=O)C2=C1C(=O)NC(=O)C2 (stereo unspecified)	> 100 µM	–	> 100 µM	> 100 µM	> 100 µM	> 100 µM	> 100 µM	> 100 µM	> 100 µM	> 100 µM	> 100 µM	> 100 µM	> 100 µM	> 100 µM	> 100 µM	> 100 µM	> 100 µM	> 100 µM	> 100 µM	–
COC(=O)[C@@]12CC(C(C)C)[C@H]3CC(C(=O)C=C1OC)[C@H]32 (stereo partly specified)	> 100 µM	> 100 µM	> 100 µM	> 100 µM	> 100 µM	> 100 µM	–	–	> 100 µM	–	–	–	–	–	–	–	–	–	–	–
CN(/N=C/c1ccnc2ccccc12)c1c([N+](=O)[O-])cc([N+](=O)[O-])cc1[N+](=O)[O-]	> 100 µM	> 100 µM	> 100 µM	> 100 µM	> 100 µM	> 100 µM	> 100 µM	> 100 µM	89.1 µM	–	–	–	–	–	–	–	–	–	–	–
Clc1cccc(-c2nnc(-c3nn(-c4ccccc4)c4nc5ccccc5nc34)o2)c1	> 100 µM	> 100 µM	> 100 µM	> 100 µM	–	> 100 µM	> 100 µM	> 100 µM	> 100 µM	–	–	–	–	–	–	–	–	–	–	–
CC(=O)[CH-]C(=O)c1ccccc1.CC(=O)[CH-]C(=O)c1ccccc1.CC(=O)[CH-]C(=O)c1ccccc1.[Nd+3].[OH3+]	> 100 µM	> 100 µM	> 100 µM	> 100 µM	> 100 µM	–	> 100 µM	–	> 100 µM	> 100 µM	> 100 µM	42.6 µM	> 100 µM	–	> 100 µM	–	–	–	25.9 µM	93.8 µM
O=C1c2ccccc2C2CCC1c1ccccc12 (stereo unspecified)	93.9 µM	76.1 µM	> 100 µM	> 100 µM	> 100 µM	78 µM	70.5 µM	> 100 µM	94 µM	–	–	–	–	–	–	–	–	–	–	–
O=C1C2C3CC(C4C5C=CC(C5)C34)C2C2C3CC(C12)C1C2C=CC(C2)C31 (stereo unspecified)	> 100 µM	> 100 µM	> 100 µM	> 100 µM	> 100 µM	> 100 µM	> 100 µM	> 100 µM	> 100 µM	–	–	–	–	–	–	–	–	–	–	–
N#CC(C(=O)/C(=N\NC(N)=O)C(C#N)c1ccccc1)c1ccccc1 (stereo unspecified)	> 100 µM	> 100 µM	> 100 µM	> 100 µM	> 100 µM	> 100 µM	> 100 µM	–	> 100 µM	–	–	–	–	–	–	–	–	–	–	–
Cn1c2c(c3c(Cl)nncc31)Cc1ccccc1-2	> 100 µM	> 100 µM	> 100 µM	> 100 µM	34.5 µM	80.7 µM	> 100 µM	> 100 µM	–	26.2 µM	20.6 µM	25.9 µM	11.4 µM	24.5 µM	31.4 µM	21.2 µM	73.5 µM	20.9 µM	–	23.9 µM
COc1cc(/C=N/N=C(\N)NO)c(Cl)cc1O	–	> 100 µM	> 100 µM	> 100 µM	> 100 µM	> 100 µM	> 100 µM	> 100 µM	> 100 µM	–	–	–	–	–	–	–	–	–	–	–
Nc1c(Cl)ncnc1NCCCCCCCCCCCCNc1ncnc(Cl)c1N	> 100 µM	> 100 µM	–	> 100 µM	> 100 µM	8.01 µM	18.3 µM	6.52 µM	7.92 µM	–	–	–	–	–	–	–	–	–	–	–
Clc1cccc(C2N3CCCCC3[C@@H]3c4[nH]c5ccccc5c4CCN23)c1 (stereo partly specified)	> 100 µM	> 100 µM	> 100 µM	65.8 µM	77.3 µM	47.5 µM	82 µM	–	40.1 µM	–	–	–	–	–	–	–	–	–	–	–
CCNC(=O)OCc1c(COC(=O)NCC)c(-c2ccc(Cl)c(Cl)c2)n2c1CCC2	54.5 µM	36.1 µM	82.3 µM	37.8 µM	–	–	24.3 µM	–	28.1 µM	–	–	–	–	–	–	–	–	–	–	–
c1ccc(CNCCN(CCNCc2ccccn2)Cc2ccc3ccccc3c2)nc1	6.58 µM	5.3 µM	5.38 µM	8.73 µM	3.71 µM	5.17 µM	2.3 µM	4.5 µM	–	1.36 µM	2.33 µM	2.97 µM	1.86 µM	2.03 µM	0.668 µM	1.68 µM	3.81 µM	2 µM	–	1.88 µM
CC(=O)[C@H]1CCC2[C@@H]3CC=C4C[C@@H]([O-])CC[C@]4(C)C3CC[C@@]21C.CC(=O)[C@H]1CCC2[C@@H]3CC=C4C[C@@H]([O-])CC[C@]4(C)C3CC[C@@]21C.CC(=O)[CH-]C(=O)c1ccccc1.CC(=O)[CH-]C(=O)c1ccccc1.Cl.[Ti+4] (stereo partly specified)	> 100 µM	> 100 µM	> 100 µM	> 100 µM	27 µM	> 100 µM	79.3 µM	> 100 µM	31 µM	40.7 µM	23.6 µM	12.7 µM	12.8 µM	27.1 µM	28.9 µM	–	–	29 µM	14.7 µM	62 µM
COc1ccc(S(=O)(=O)N(CC(=O)O)c2ccccc2)cc1	> 100 µM	> 100 µM	> 100 µM	> 100 µM	> 100 µM	> 100 µM	> 100 µM	> 100 µM	> 100 µM	–	–	–	–	–	–	–	–	–	–	–
O=c1c(Cl)c(Cl)cnn1CCCl	30.3 µM	3.14 µM	35.3 µM	5.18 µM	29 µM	4.74 µM	10.7 µM	14.3 µM	–	–	–	–	–	–	–	–	–	–	–	–
Nc1ccccc1C(=O)CCC1C(=O)NC(=S)NC1=O	> 100 µM	> 100 µM	> 100 µM	> 100 µM	> 100 µM	> 100 µM	> 100 µM	> 100 µM	> 100 µM	–	–	–	–	–	–	–	–	–	–	–
